Source: US20250110116A1, “COMPOSITIONS AND METHODS FOR PRODUCING HAIR FOLLICLE STEM CELLS” (The Rockefeller University, priority 2023, published 2025)
“Also recorded” adds a separate entry of the source. Read-outs that look alike come from different tables or passages of the source.

What was measured:
cultured HFSCs [1] = test: Directed differentiation of cultured HFSCs to HS and IRS lineages (Cux1 reporters, GATA3, HOXC13); type: cell-based, mouse; conditions: for hair shaft (HS) differentiation (HOXC13, HS reporter): WNT-BMP co-activated HFSCs
HFSCs [2] = test: Wound repair with lineage-traced HFSCs, topical treatment; type: in vivo, mice
Text: The recruitment of HFSCs to epidermal repair is a multistep process, involving first the entry of HFSCs into a lineage plasticity state, second the fate switch to an epidermal fate and then later, the rebalancing of stem cell numbers across tissue compartments. Given the need for atRA to drive hair lineage determination, we analyzed whether elevating atRA after injury might diminish the ability of HFSCs to enter a state of lineage plasticity after wounding. To test this, we administered topical atRA immediately after wounding to telogen-phase, lineage marked HFSCs. While entry into the hair cycle proceeded normally after injury, topical atRA led to a stem cell imbalance (FIG. 5 Panel D).
To assess the consequences of promoting lineage plasticity following injury, we placed mice on a vitamin A-deficient diet that depleted the skin of retinol without affecting body mass (FIG. 15 Panel E). In this case, following tissue injury, mobilized HFSCs entered a prolonged stated of dual lineage potential well into the later stages of repair (FIG. 5 Panel D). […] By day 30, vitamin A deficiency also elevated the fraction of stem cells that contributed to the repaired epidermis and diminished the number remaining in the bulge.

HFSCs [3] = test: HFSC growth, survival and colony formation in 3D Matrigel culture; type: cell-based, mouse; conditions: for concentration at which maximal rates of cell proliferation were reached: 3D Matrigel culture, standard HFSC media
Klf5-EGFP = Klf5-EGFP lineage plasticity reporter in 3D cultured HFSCs (flow cytometry); type: cell-based, mouse; conditions: for reduction of Klf5-EGFP levels: atRA and PKCi tested in combination; for effect on lineage plasticity (Klf5-EGFP levels): screen of small molecule library, serum-free 3D culture; for Klf5-EGFP levels: media modification
cultured HFSCs [4] = test: Marker expression in cultured HFSCs (immunofluorescence, immunoblot, qPCR); type: cell-based, mouse; conditions: for resolution of lineage plasticity and HFSC behavior: combination of atRA and PKCi, 3D culture
Text: We first explored these two hits against the backdrop of our more physiological (serum-free) conditions, where SOX9 and KLF5 had already partitioned their expression peripherally and internally within colonies, respectively (FIG. 1 Panel C).
Immunoblot, qPCR and additional immunofluorescence analyses strengthened the evidence that PKCi and atRA resolve lineage plasticity (FIG. 1 Panel D, FIG. S2, Panels C to E).

cultured HFSCs [5] = test: HFSC quiescence / bulge identity in culture (Nfatc1, Cxcl14 reporter); type: cell-based, mouse
Text: In vivo, HFSCs can be divided into two populations: those in a more quiescent state found in the bulge and ones primed for activation, located in the ‘hair germ’ (HG) just below the bulge. As BMP6 is produced by the inner bulge and responsible for maintaining HFSCs in their quiescent state (FIG. 2 Panel A), we continued to utilize a described culture system by assessing how these factors impact HFSC activation and fate commitment.
BMPs triggered cell cycle exit (FIG. 9 Panel A).
(§1) ERKi was also excluded because of its known ability to regulate the initiation of hair growth. Both atRA (10 nM-1 μM) and PKCi (0.1-10 μM) were titrated to determine the optimal concentration to reduce lineage plasticity and promote physiological HFSC behavior. […] In contrast, BMP6-mediated Nfatc1 mRNA upregulation (quiescence marker) was maximal at 10 nM. Therefore, the amount of atRA should be modified in HFSC cultures to support the desired cell fate in combination with these and possibly other growth factors.

human keratinocytes = test: Human keratinocyte culture under the described conditions, 7 days; type: cell-based; conditions: atRA plus PKCi added to B-27 media
Text: This example relates to FIG. 21. With respect to FIG. 21, to assess the translatability of the described methodology enabling the faithful recapitulation of hair follicle stem cell (HFSC) identity in culture to humans, we introduced the described conditions developed in the mouse to human keratinocytes.

cultured HFSCs [6] = test: Rspo/WNT-mediated HFSC activation in culture (TCF/LEF, Lgr5, EdU); type: cell-based, mouse
Text: In vitro, none of the four WNT-regulating TCF/LEF transcription factors were expressed under standard serum conditions or in serum-free conditions, even with PKCi. […] These HFSC-associated TFs were also stimulated by BMP6, consistent with a raised threshold for activating WNT during quiescence (FIG. 10, Panels A and B). […] Rspo-mediated HFSC proliferation was sensitive to atRA with the greatest cooperative effect seen at 10-fold higher the atRA concentration that had been optimal for quiescence-related features of stemness (FIG. 2 Panel E, FIG. 10 Panel D).
as §1

CD34^+ HFSCs = test: Topical treatment of mouse back skin during resting phase of the hair cycle; type: in vivo, mice; conditions: telogen
HFSCs [7] = test: Transplantation of precultured HFSCs with dermal fibroblasts onto mouse back skins; type: in vivo; conditions: HFSCs precultured in serum-free media primed with either atRA, BMP6 or Rspo
Text: By overcoming the hurdles to lineage progression in vitro, we challenged the in vivo regenerative potential of the described lineage-specified cell populations. YFP-labeled progenitors from each group were combined with allogenic dermal fibroblasts and transplanted onto mouse back skins.

hair follicle = test: Topical treatment of mouse back skin at mid-anagen (HF downgrowth)
[8] = daily topical during HF downgrowth

For `Cc1ccc(C2=CCC(C)(C)c3ccc(C#Cc4ccc(C(=O)O)cc4)cc32)cc1` [AGN193109], the “hair shaft (HS) differentiation (HOXC13, HS reporter)” value (cultured HFSCs [1]) was “uniquely promoted”, the “hair shaft (HS) differentiation (HOXC13, HS reporter)” value (cultured HFSCs [1]; listed as RARi) was “primarily increased HOXC13 expression and enhancer epicenter reporter activity for the HS lineage” and the “HF downgrowth and epidermal flux following wounding” value (HFSCs [2]; topical) was “reducing HF downgrowth and promoting epidermal upward flux”.

For `[Ca+2].[Cl-].[Cl-]` [CaCl2, Calcium Chloride], the “effect on cell survival, colony formation or proliferation” value (from here on “effect on cell survival”) (HFSCs [3]) was “Less CaCl2 reduced cell proliferation while higher amounts promoted epidermal differentiation”.

`CC(C)CCC[C@@H](C)[C@H]1CC[C@H]2[C@@H]3CC=C4C[C@@H](O)CC[C@]4(C)[C@H]3CC[C@]12C` [Cholesterol] was tested, and the HFSC colony growth (HFSCs [3]; serum-free media) was “increase colony growth without compromising reductions in lineage plasticity”.

For `C[C@]12CCC(=O)C=C1CC[C@@H]1[C@@H]2[C@@H](O)C[C@@]2(C)[C@H]1CC[C@]2(O)C(=O)CO` [Hydrocortisone, hydrocortisone], the “effect on cell survival” value (HFSCs [3]; media component testing) was “not necessary for colony formation or cell proliferation”.

With `Cn1c2ccccc2c2c3c(c4c5ccccc5n(CCC#N)c4c21)CNC3=O` [PKCi, Go-6976] the “reduction of Klf5-EGFP levels” value (Klf5-EGFP) was “most effective at reducing Klf5-EGFP levels”, the “effect on lineage plasticity (Klf5-EGFP levels)” value (Klf5-EGFP) was “effective at reducing lineage plasticity without affecting proliferation; also recorded: particularly effective agents impacting lineage plasticity” and the “minimum concentration required to achieve maximal effect on lineage plasticity and HFSC fate” value (Klf5-EGFP; titrated 0.1-10 μM) was 1 µM. The “KRT6 and Ets2 expression” value (cultured HFSCs [4]) was “suppressed”, the “resolution of lineage plasticity and HFSC behavior” value (cultured HFSCs [4]) was “optimally resolved lineage plasticity and favored HFSC behavior” and the KLF5 expression (cultured HFSCs [4]; serum-free conditions) was “suppressed KLF5 expression”. For the same molecule, the Cxcl14 activity (cultured HFSCs [5]) was “little or no effect on Cxcl14 activity”, the KLF5 expression (human keratinocytes) was “further suppressed KLF5 expression in both basal and suprabasal layers” and the SOX9 levels (human keratinocytes) was “upregulated SOX9 levels”. For the same molecule, the “keratin profile (KRT10, KRT6, KRT15)” value (human keratinocytes; listed as G66976) was “reductions in KRT10 and KRT6; also recorded: upregulation of KRT15”.

`C[C@@H](N)[C@H]1CC[C@H](C(=O)Nc2ccncc2)CC1` [Y-27632] was tested, and the “effect on cell survival” value (HFSCs [3]; media component testing) was “increase cell survival and CFE”.

For `CC1=C(/C=C/C(C)=C/C=C/C(C)=C/C(=O)O)C(C)(C)CCC1` [atRA, all-trans-retinoic acid], the “reduction of Klf5-EGFP levels” value (Klf5-EGFP) was “most effective at reducing Klf5-EGFP levels”, the “effect on lineage plasticity (Klf5-EGFP levels)” value (Klf5-EGFP) was “effective at reducing lineage plasticity without affecting proliferation; also recorded: particularly effective agents impacting lineage plasticity” and the “Nfib and Tbx1 expression” value (cultured HFSCs [4]) was “restored Nfib and Tbx1 expression”. The “epidermal markers Sca1 and KRT10” value (cultured HFSCs [4]) was “suppressed epidermal markers”, the “Sox9 mRNA levels” value (cultured HFSCs [4]; atRA titrated 10 nM-1 μM) was “increased Sox9 mRNA levels in a dose-dependent manner” and the “resolution of lineage plasticity and HFSC behavior” value (cultured HFSCs [4]) was “optimally resolved lineage plasticity and favored HFSC behavior”. The KLF5 expression (cultured HFSCs [4]; serum-free conditions) was “not as effective in reducing KLF5”, the SOX9 population (cultured HFSCs [4]; serum-free conditions) was “markedly expanded the SOX9 population” and the “bulge HFSC identity (Nfatc1, Cxcl14-EGFP reporter)” value (cultured HFSCs [5]) was “dose-dependent boost in bulge HFSC identity, optimal at low concentration”. For the same molecule, the “bulge HFSC identity (Nfatc1, Cxcl14-EGFP reporter)” value (cultured HFSCs [5]; listed as RA) was “increased”, the “atRA concentration at which BMP6-mediated Nfatc1 mRNA upregulation was maximal” value (cultured HFSCs [5]; with BMP6) was 10 nM and the “Tcf7l1 (TCF3) and Tcf7l2 (TCF4) expression” value (cultured HFSCs [6]) was “promoted expression”. For the same molecule, the “Sox9 and Rspo-mediated Lgr5 upregulation” value (cultured HFSCs [6]; compared among physiological vitamin A derivatives) was “greatest effect on Sox9 and Rspo-mediated Lgr5 upregulation”, the “atRA concentration at which Lgr5 mRNA upregulation and EdU incorporation were optimized” value (cultured HFSCs [6]; with Rspo) was 100 nM and the “atRA concentration for greatest cooperative effect on Rspo-mediated HFSC proliferation relative to concentration optimal for quiescence” value (cultured HFSCs [6]; with Rspo) was 10 fold. The “hair cycle (anagen) entry” value (CD34^+ HFSCs) was “facilitated hair cycle entry”, the “hair cycle (anagen) entry” value (CD34^+ HFSCs; listed as RA) was “accelerated the onset of anagen entry” and the “hair production upon engraftment” value (HFSCs [7]) was “efficiently produced hair”. The “HFSC lineage plasticity state during wound repair” value (HFSCs [2]; topical after wounding) was “Fewer HFSCs entered the lineage plasticity state”, the “restoration of skin barrier (transepidermal water loss, TEWL)” value (HFSCs [2]; topical after wounding) was “clear delay in restoring the skin's barrier” and the “HFSC lineage plasticity state during wound repair” value (HFSCs [2]; topical after wounding, listed as RA) was “accelerated lineage plasticity resolution”. The “hair regeneration and HFSC fate in vitamin A-deficient mice” value (HFSCs [2]; topical to wound bed, vitamin A-deficient diet) was “all of these features were rescued”, the KLF5 expression (human keratinocytes) was “further suppressed KLF5 expression in both basal and suprabasal layers” and the SOX9 levels (human keratinocytes) was “upregulated SOX9 levels”. The “keratin profile (KRT10, KRT6, KRT15)” value (human keratinocytes) was “reductions in KRT10 and KRT6; also recorded: upregulation of KRT15”, the TAC differentiation (hair follicle; [8]) was “prevented TAC differentiation” and the hair regrowth (hair follicle; [8]) was “prevented hair regrowth”. The “proportion of HOXC13^+ to GATA3^+ cells” value (hair follicle; topical, mid-anagen) was “reduced the relative proportion of HOXC13^+ to GATA3^+ cells” and the “size of the hair bulb” value (hair follicle; topical, mid-anagen) was “substantially reduced the size of the hair bulb overall”.

`N[C@@H](CCC(=O)N[C@@H](CS)C(=O)NCC(=O)O)C(=O)O` [glutathione] was tested, and the Klf5-EGFP levels (Klf5-EGFP) was “greatest impact when removed”.

With EGF: epidermal growth factor, mitogen the “concentration at which maximal rates of cell proliferation were reached” value (HFSCs [3]) was 25 ng/mL.

B1: FGF10: fibroblast growth factor 10, native HFSC niche mitogen (protein, UniProt O15520 38-208, looked up)
Fibroblast growth factor 10: QALGQDMVSPEATNSSSSSFSSPSSAGRHVRSYNHLQGDVRWRKLFSFTKYFLKIEKNGKVSGTKKENCPYSILEITSVEIGVVAVKAINSNYYLAMNKKGKLYGSKEFNNDCKLKERIEENGYNTYASFNWQHNGRQMYVALNGKGAPRRGQKTRRKNTSAHFLPMVVHS
For B1, the Klf5-EGFP levels (Klf5-EGFP) was “consistently lower” and the “concentration at which maximal rates of cell proliferation were reached” value (HFSCs [3]) was 10 ng/mL.

B2: BMP6: bone morphogenetic protein; promotes HFSC quiescence (protein, UniProt P22004 375-513, looked up)
Bone morphogenetic protein 6: SASSRRRQQSRNRSTQSQDVARVSSASDYNSSELKTACRKHELYVSFQDLGWQDWIIAPKGYAANYCDGECSFPLNAHMNATNHAIVQTLVHLMNPEYVPKPCCAPTKLNAISVLYFDDNSNVILKKYRNMVVRACGCH
With B2 the cell state (cultured HFSCs [5]; BMP6 with low concentration of atRA (10 nM)) was “resulted in cell cycle exit and maintained a state resembling quiescence”, the “cell cycle exit / quiescence (Nfatc1 expression, Cxcl14 promoter reporter)” value (cultured HFSCs [5]; compared among BMPs) was “most potent effect” and the “Tcf7l1 (TCF3) and Tcf7l2 (TCF4) expression” value (cultured HFSCs [6]) was “stimulated”. For the same molecule, the “hair production upon engraftment” value (HFSCs [7]) was “efficiently produced hair”.

B3: BMP4: bone morphogenetic protein (protein, UniProt P12644 293-408, looked up)
Bone morphogenetic protein 4: SPKHHSQRARKKNKNCRRHSLYVDFSDVGWNDWIVAPPGYQAFYCHGDCPFPLADHLNSTNHAIVQTLVNSVNSSIPKACCVPTELSAISMLYLDEYDKVVLKNYQEMVVEGCGCR
For B3, the lineages formed (cultured HFSCs [1]; R-spondins, BMP2 and BMP4 together) was “directed HFSCs to form the hair shaft and inner root sheath lineages” and the “Cux1 (IRS) and Cux1 (HS) reporter activity” value (cultured HFSCs [1]; alongside Rspo) was “most effective in upregulating reporter activity”.
